For 1 compound, EC50 and IC50 results are on record in patent publication US20020028807A1, “Non-nucleoside reverse transcriptase inhibitors” (priority 2000, published 2002).

Assay [1] has as its system HIV coding for mutant reverse transcriptase K103N. The experiment in a line: ELISA (p24) assay of HIV replication in C8166 cell culture, K103N virus. Format: cell-based, HIV-1. Particulars: Human immunodeficiency virus 1, C8166, 72 h, read-out: EC50 K103N. Here is the method: (§1) Compounds of the invention were tested for their ability to inhibit HIV replication in cell culture in a 96-well plate assay. Complete RPMI 1640, consisting of RPMI 1640+10% fetal bovine serum, 10 μg/ml gentamycin and 10 μM β-mercaptoethanol was used for dilution of the compound as well as cell growth medium. The T lymphocyte cell line C8166 was infected at a multiplicity of infection of 0.001 with viruses coding for wild-type and mutant reverse transcriptase. Cells were then incubated for three days in the presence of serial dilutions of the compounds of the invention. The supernatant was pooled from eight replica wells and the concentration of extracellular p24 was determined using a commercially available HIV-1 p24 antigen assay kit (Beckman-Coulter®). The level of inhibition (% inhibition) was calculated with the following equation: [formula]

In assay [2] the target is T1, HIV-1 RT K103N/V108I (Human immunodeficiency virus type 1 group M subtype B, UniProt P03366, K702N/V707I).
T1 construct: an HIV RT clone pKRT2 containing only the RT p66 gene regulated by the lac operon/trc promoter; made in house; host or cells: E. coli JM109, vector pKK233-2
The experiment in a line: Reverse transcriptase (RT) assay, K103N/V108I mutant. Format: biochemical. The method in brief: (§2)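 Mutant HIV-1 RTs (bacterially expressed, purified heterodimers) were assayed like the wild-type enzyme: radiolabelled dGTP was incorporated during transcription of a DNA strand off a poly r(C) template with biotin-tagged oligo d(G) primer, and compound inhibition of this incorporation was determined.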

Assay [3] deals with HIV coding for mutant reverse transcriptase K103N/V108I. The experiment in a line: ELISA (p24) assay of HIV replication in C8166 cell culture, K103N/V108I virus. Format: cell-based, HIV-1. The settings on record: Human immunodeficiency virus 1, C8166, 72 h, read-out: EC50 K103N/V108I. As for the experimental part: as §1
Assay [4] deals with HIV coding for mutant reverse transcriptase V106A. The experiment in a line: ELISA (p24) assay of HIV replication in C8166 cell culture, V106A virus. The settings on record: Human immunodeficiency virus 1, C8166, 72 h, read-out: EC50 V106A. The assay is classed as cell-based, HIV-1. Here is the method: as §1
In assay [5] the test system is HIV coding for mutant reverse transcriptase Y181C. The experiment in a line: ELISA (p24) assay of HIV replication in C8166 cell culture, Y181C virus. Format: cell-based, HIV-1. Particulars: Human immunodeficiency virus 1, C8166, 72 h, read-out: EC50 Y181C. Here is the method: as §1
Assay [6] relates to HIV coding for wild-type reverse transcriptase (WT RT). The experiment in a line: ELISA (p24) assay of HIV replication in C8166 cell culture, wild-type RT virus. Format: cell-based, HIV-1. Particulars: Human immunodeficiency virus 1, C8166, 72 h, read-out: EC50 WT RT. A digest of the protocol: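 C8166 T cells infected at MOI 0.001 with wild-type or mutant RT HIV, then grown 3 days with serial compound dilutions in RPMI 1640 + 10% FBS. Extracellular p24 in supernatant pooled from eight replica wells measured by ELISA; % inhibition calculated from p24 levels.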

The target in assay [7] is T2, HIV-1 RT K103N (Human immunodeficiency virus type 1 group M subtype B, UniProt P03366, K702N).
T2 construct: an HIV RT clone pKRT2 containing only the RT p66 gene regulated by the lac operon/trc promoter; made in house; host or cells: E. coli JM109, vector pKK233-2
The experiment in a line: Reverse transcriptase (RT) assay, K103N mutant. Format: biochemical. A digest of the protocol: as §2

For assay [8], the system named is HIV coding for mutant reverse transcriptase K103N/P225H. The experiment in a line: ELISA (p24) assay of HIV replication in C8166 cell culture, K103N/P225H virus. The assay is classed as cell-based, HIV-1. The settings on record: Human immunodeficiency virus 1, C8166, 72 h, read-out: EC50 K103N/P225H. Here is the method:
as §1

For assay [9], the target named is T3, HIV-1 RT wild-type (WT) (Human immunodeficiency virus type 1 group M subtype B, UniProt P03366).
T3 construct: an HIV RT clone pKRT2 containing only the RT p66 gene regulated by the lac operon/trc promoter; made in house; host or cells: E. coli JM109, vector pKK233-2
The experiment in a line: Reverse transcriptase (RT) assay, wild-type enzyme. Format: biochemical.

In assay [10] the target is T4, HIV-1 RT Y181C (Human immunodeficiency virus type 1 group M subtype B, UniProt P03366, Y780C).
T4 construct: an HIV RT clone pKRT2 containing only the RT p66 gene regulated by the lac operon/trc promoter; made in house; host or cells: E. coli JM109, vector pKK233-2
The experiment in a line: Reverse transcriptase (RT) assay, Y181C mutant. Format: biochemical. The method in brief:
as §2

Assay [11] deals with T5, HIV-1 RT K103N/P225H (Human immunodeficiency virus type 1 group M subtype B, UniProt P03366, K702N/P824H).
T5 construct: an HIV RT clone pKRT2 containing only the RT p66 gene regulated by the lac operon/trc promoter; made in house; host or cells: E. coli JM109, vector pKK233-2
The experiment in a line: Reverse transcriptase (RT) assay, K103N/P225H mutant. Format: biochemical. The method in brief:
as §2

For assay [12], the target named is T6, HIV-1 RT K103N/Y181C (Human immunodeficiency virus type 1 group M subtype B, UniProt P03366, K702N/Y780C).
T6 construct: an HIV RT clone pKRT2 containing only the RT p66 gene regulated by the lac operon/trc promoter; made in house; host or cells: E. coli JM109, vector pKK233-2
The experiment in a line: Reverse transcriptase (RT) assay, K103N/Y181C mutant. The assay is classed as biochemical. A digest of the protocol:
as §2

Assay [13] concerns the target T7, HIV-1 RT V106A (Human immunodeficiency virus type 1 group M subtype B, UniProt P03366, V705A).
T7 construct: an HIV RT clone pKRT2 containing only the RT p66 gene regulated by the lac operon/trc promoter; made in house; host or cells: E. coli JM109, vector pKK233-2
The experiment in a line: Reverse transcriptase (RT) assay, V106A mutant. The assay is classed as biochemical. The method in brief:
as §2

Assay [14] deals with T8, HIV-1 RT Y188L (Human immunodeficiency virus type 1 group M subtype B, UniProt P03366, Y787L).
T8 construct: an HIV RT clone pKRT2 containing only the RT p66 gene regulated by the lac operon/trc promoter; made in house; host or cells: E. coli JM109, vector pKK233-2
The experiment in a line: Reverse transcriptase (RT) assay, Y188L mutant. Format: biochemical. The method in brief:
as §2

Assay [15] concerns HIV coding for mutant reverse transcriptase K103N/L100I. The experiment in a line: ELISA (p24) assay of HIV replication in C8166 cell culture, K103N/L100I virus. The assay is classed as cell-based, HIV-1. The settings on record: Human immunodeficiency virus 1, C8166, 72 h, read-out: EC50 K103N/L100I. As for the experimental part:
as §1

Assay [16] concerns the target T9, HIV-1 RT K103N/L100I (Human immunodeficiency virus type 1 group M subtype B, UniProt P03366, K702N/L699I).
T9 construct: an HIV RT clone pKRT2 containing only the RT p66 gene regulated by the lac operon/trc promoter; made in house; host or cells: E. coli JM109, vector pKK233-2
The experiment in a line: Reverse transcriptase (RT) assay, K103N/L100I mutant. The assay is classed as biochemical. The method in brief: as §2

Turning to `CCN1c2ncc(CCOc3cc[n+]([O-])c4ccccc34)cc2C(=O)Nc2c(C)ccnc21` [compound 12, 5,11-Dihydro-11-ethyl-4-methyl-8-{2-{(1-oxido-4-quinolinyl)oxy}ethyl}-6H-dipyrido[3,2-b:2′,3′-e][1,4]diazepin-6-one], the EC50 stood at 2.8 nM in assay [1]; 5 nM in [3]; 12.4 nM in assay [4]; 2.7 nM in [5]; 0.26 nM in assay [6]; 1.5 nM in [8]. The EC50 in [15] worked out at 2.9 nM. Further, the IC50 in assay [2] was 75 nM; in [7], 31 nM; in assay [9] it was 12 nM; in assay [10], 38 nM; in assay [11], 38 nM; in assay [12] it was 212 nM. In addition, the IC50 was 121 nM in [13], > 10000 nM in [14] and 124 nM in [16].
